Experimental data published in US5621102A, “Process for preparing enantiomerically pure xanthine derivatives” (Cell Therapeutics, Inc., priority 1995, dated 1997).

Assays:
[1] = test system: lysophosphatidic acid acyl transferase (LPAAT); assay: in vitro inhibition of LPAAT in 3T3 Ras-transformed fibroblasts stimulated with IL-1β; format: cell-based
Experimental: FIG. 17 illustrates a comparison of CT1501R, its S isomer CT1501S, and PTX on in vitro inhibition of lysophosphatidic acid acyl transferase (LPAAT), an enzyme involved in second messenger signaling. […] LPAAT activity was determined in 3T3 Ras-transformed fibroblasts stimulated with IL-1β.
A method described here permits differentiation of the various subspecies of PA and DAG based upon acyl chain composition. This can differentiate those compounds that activate (and inhibit activation of) the present second messenger pathway from other pathways, such as the classical PI pathway. The present second messenger pathway involves substrates with unsaturated fatty acids in the sn-2 position other than arachidonate and those sub species of PAPH and LPAAT that are not involved in normal cellular housekeeping functions that are part of the classical PI pathway. […]
One in vitro assay measures inhibition of the relevant enzymes lysophosphatidic acid acyltransferase (LPAAT) and phosphatidic acid phosphoryl hydrolase (PAPH). […] It is important to note that the assay method permits discrimination between various forms of PA and DAG so that those relevant to the pathway affected by the (R) or (S) compounds of the invention can be measured directly. […] Thus, the relevant unsaturated (non-arachidonic) PA and DAG subspecies may be detected. […]

[2] = test system: adhesion of U937 cells to activated HUVEC; assay: adhesion of U937 cells to activated HUVEC (BCECF fluorescence); format: cell-based, human; conditions: 250 μM
Experimental: HUVEC were stimulated with either IL-1-α (100 ng/ml); TNF-α (10 ng/ml) or LPS ([…]) with or without the addition of 250 μM CT1501R one hour prior to addition of the stimulus. Twelve hours later, the cells were assayed for adhesion of BCECF-labeled U937 cells. FIG. 21 is the relative BCECF fluorescence (+/-SD) for each of the treatment groups.
Murine peritoneal exudate cell macrophages (PEC) were isolated by perfusion of mouse peritoneum and plated into 96-well trays at 5×10^5 cells per well. Cells were stimulated with 5 μg/ml Salmonella abortus equi-derived endotoxin CLPS; Sigma Chemical Co., L-1887) or 50 ng/ml IL-1α (Genzyme; Cambridge, Mass.) with or without the addition of CT1501R added to the cultures one hour prior to addition of the stimulus. At various times thereafter, supernatants were removed and levels of either TNF-α or IL-1α were assayed using commercial 96-well microtiter immunoassay kits (Genzyme; TNF; Endogen, Boston, Mass.; IL-1α) according to manufacturer's specifications. […] After addition of […] Hanks Balanced Salt Solution (HBSS), the microtiter plate was then analyzed on a Millipore Cytofiuor fluorescent plate reader (excitation 488 nm; emission 525 nm). […]

C[C@@H](O)CCCCn1c(=O)c2c(ncn2C)n(C)c1=O [CT1501R, (R)-1-(5-hydroxyhexyl)-3,7-dimethylxanthine]
potency relative to racemic mixture (M1) [1]: two to three time more potent than the racemic mixture | inhibition of LPAAT enzyme activity ([1]; 3T3 Ras-transformed fibroblasts stimulated with IL-1β, at IC50 concentrations achievable in a clinical setting): significantly inhibited enzyme activity | relative adhesiveness of activated HUVEC for U937 cells ([2]; 1 hour prior to TNF-α, IL-1α or LPS): marked suppression in the relative adhesiveness | background attachment of U937 cells to HUVEC ([2]; non-activated HUVEC): no significant effect on background attachment
